Results: PMC10224004, “Modulation of Distribution and Diffusion through the Lipophilic Membrane with Cyclodextrins Exemplified by a Model Pyridinecarboxamide Derivative” (Pharmaceutics, 2023)
Values joined by “and” are separate entries in the source; they are usually repeats but may differ in a detail not shown here. Equal entries are not always repeated.

What was measured:
[1] = Shake-flask distribution in the 1-octanol/buffer pH 7.4 system; type: physicochemical
Description: (§1) Apparent distribution coefficients of the compounds were measured in two systems: 1-octanol/buffer pH 7.4 and n-hexane/buffer pH 7.4 by the shake-flask technique at 310.2 ± 0.5 K in the absence (for IPN, INZ and iNAM) and in the presence of cyclodextrins (HP-β-CD and M-β-CD) in the aqueous phase (for IPN only). The concentrations of cyclodextrins were: 0.0115 M, 0.025 M and 0.035 M. The experiments were carried out according to the literature. In brief, the following experimental procedure was performed. Aqueous buffer pH 7.4 and organic solvent (1-octanol or n-hexane) were mixed during 48 h to obtain mutually saturated phases. The stock solutions containing the drug were prepared in buffer pH 7.4 saturated with the organic solvent. Both aliquots of the aqueous stock solution and organic solvent were placed in screwed glass vials and mixed at 310.2 ± 0.5 K during 3 days. The concentrations of the stock solutions were approximately 6.0 × 10^−3 M for both systems. The volumes of the phases were 3:3 in the 1-octanol/buffer pH 7.4 systems and 6:3 and 10:3 in the n-hexane/buffer pH 7.4 systems, without and with cyclodextrins, respectively. After mixing, the equilibrium was achieved; the vials were maintained at 310.2 ± 0.5 K, and the phases were separated from each other. The drug concentrations were determined using spectrophotometer (Cary-50 Varian, Palo Alto, CA, USA, Software Version 3.00 (339)). The experiments were carried out at least four-fold with an accuracy of 2–4%. The distribution coefficients were calculated using the following equation:(6) DappOrg/buf=C2Org/buf⋅V^buf/Org/C2buf/Org⋅V^Org/buf where DappOrg/buf is the distribution coefficient calculated from the concentrations of the compounds expressed in molar scale, C2Org/buf and C2buf/Org are the molar concentrations of the drug in the mutually saturated organic solvent/buffer and buffer/organic solvent phases, respectively, and V^buf/Org and V^Org/buf are the volumes of the saturated buffer and organic solvent phases, respectively. In addition, the ΔlogD parameters were estimated taking into account the distribution coefficients both in the 1-octanol/buffer pH 7.4 and n-hexane/buffer H 7.4 systems. As Abraham et al. stated, the difference between the distribution parameters in these systems ( ΔlogD ) can be applied to assess the specific interactions including a hydrogen-bonding impact to the drug transport properties and can be calculated as follows:(7) ΔlogD=logDappoct/buf−logDapphex/buf

[2] = Association constant of IPN with cyclodextrin by phase-distribution method; type: binding; conditions: 310.2 K
Description: The association constants (KC) of IPN with cyclodextrins were determined by a partition coefficient (phase-distribution) method. Possible partition of CDs to the 1-octanol or n-hexane phases was assumed to be negligible since both cyclodextrins used in this study have high aqueous solubility (>600 mg∙mL^−1). The KC values of the complexes between the drug and each CD were calculated assuming that in the presence of CD the distribution coefficient ( DappOrg/(buf+CD) ) is defined as:(8) DappOrg/(buf+CD)=C2Org/C2buf(drug)+C2buf(drug•CD) where C2buf(drug) and C2buf(drug•CD) are the concentrations of the drug and drug complex with CD in the aqueous phase. The following equation was applied:(9) DappOrg/(buf+CD)/DappOrg/buf=1+KC⋅CCD where DappOrg/buf and DappOrg/(buf+CD) are the distribution coefficients of a compound in the absence and in the presence of CD in the aqueous phase, respectively. Similarly to the phase-solubility method of the stability constants determination, but bearing in mind an opposite trends in solubility and organic solvent/water partition (the higher the solubility, the lower the distribution coefficient), the following dependence was plotted to obtain the association constant (KC) and the stoichiometric ratio of the complex (α):(10) log(DappOrg/buf−DappOrg/(buf+CD)/DappOrg/buf)=log(KC)+α⋅log(CCD) where CCD is the concentration of cyclodextrin in the aqueous phase of the distribution system and the y-intercept produces log(KC).
To approve the validity of the distribution results interpretation we used the distribution coefficients at different CDs concentrations for the determination of the association constants of IPN with the studied cyclodextrins. As shown by Másson et al. for hydrophilic drugs (a case of IPN), this method can be successfully used for the simultaneous determination of the association constant with cyclodextrins and partition coefficient. The association constants (KC) of IPN with HP-β-CD and M-β-CD were determined according to the phase-distribution method using Equations (8)–(10). To this end, the plots of the dependences (Equation (10)) were constructed and are illustrated in Figure 6.

[3] = ΔlogD parameter (logDapp oct/buf − logDapp hex/buf); type: physicochemical; conditions: 310.2 K; pH 7.4; cyclodextrin in buffer phase as in the label
Description: as §1, with “The volumes of the phases were 3:3 in the 1-octanol/buffer pH 7.4 systems and 6:3 and 10:3 in the n-hexane/buffer pH 7.4 systems, without and with cyclodextrins, respectively. After mixing, the equilibrium was achieved; the vials were maintained at 310.2 ± 0.5 K, and the phases were separated from each other.” left out, “The experiments were carried out at least four-fold with an accuracy of 2–4%.” left out, “In addition, the ΔlogD parameters were estimated taking into account the distribution coefficients both in the 1-octanol/buffer pH 7.4 and n-hexane/buffer H 7.4 systems.” left out

[4] = set-up: method as in PMID 12750026; conditions: 293.2 K (20 °C); cited from earlier work
[5] = Shake-flask distribution in the n-hexane/buffer pH 7.4 system; type: physicochemical
Description: as §1

[6] = 310.2 K, cyclodextrin in buffer phase as in the label
[7] = V(oct):V(buf)= 3:3, molar concentration × 10^3
[8] = from 1-Octanol/Buffer pH 7.4 System
[9] = from n-hexane/buffer pH 7.4 system

Dappoct/buff [1, 6]: 2.651 ± 0.093
logDappoct/buff [1, 6]: 0.423 ± 0.015 and 0.423
Molar concentration C2 buf/oct ∙10^3 (aqueous phase) [1, 7]: 1.69 ∙10^3
Molar concentration C2 oct/buf ∙10^3 (organic phase) [1, 7]: 4.48 ∙10^3
Association constant KC of IPN complex with HP-β-CD [2, 8]: 0.899 ± 0.022
Association constant KC of IPN complex with M-β-CD [2, 8]: 0.479 ± 0.109
α (parameter indicating the complex stoichiometry), IPN with HP-β-CD [2, 8]: 1.004 ± 0.014
α (parameter indicating the complex stoichiometry), IPN with M-β-CD [2, 8]: 1.000 ± 0.065
Association constant KC of IPN complex with HP-β-CD [2, 9]: 1.536 ± 0.128
Association constant KC of IPN complex with M-β-CD [2, 9]: 1.311 ± 0.241
α (parameter indicating the complex stoichiometry), IPN with HP-β-CD [2, 9]: 1.087 ± 0.076
α (parameter indicating the complex stoichiometry), IPN with M-β-CD [2, 9]: 1.057 ± 0.143
ΔlogD [3]: 3.33
logDapphex/buff [5, 6]: −2.907
Dapphex/buff ·10^4 ([5]; 310.2 K, value = D·10^4, cyclodextrin in buffer phase as in the label): 12.400 ± 0.191 ·10^4
Molar concentration C2 buf/hex ∙10^3 (aqueous phase) ([5]; V(hex):V(buf)= 6:3 without and 10:3 with cyclodextrins, molar concentration × 10^3): 6.46 ∙10^3
Molar concentration C2 hex/buf ∙10^5 (organic phase) ([5]; V(hex):V(buf)= 6:3 without and 10:3 with cyclodextrins, molar concentration × 10^5): 1.60 ∙10^5
SMILES: CC(C)NNC(=O)c1ccncc1 [IPN, N′-isopropyl isonicotinic hydrazide]
log Dexpoct/pH7.4 [4]: 0.35 ± 0.10
